From US9981975B2, “Pyrrolotriazine compounds as tam inhibitors” (Incyte Corporation, priority 2016, dated 2018)

biological target: Tyro3 (Homo sapiens (Human), UniProt Q06418); assay: TAM Enzymatic Assay (HTRF), Tyro3; assay type: biochemical; settings: Tyro3, 60 min, room temperature
Description: (§1) The kinase assay buffer contained 50 mM HEPES, pH7.5, 10 mM MgCl2, 1 mM EGTA, 0.01% NP-40 and 2 mM DTT. 0.1 ul test compounds dissolved in DMSO were transferred from compound plates to white 384-well assay plates (Greiner […] plates). […] 4 ul enzyme solution (or assay buffer for the enzyme blank) was added to the appropriate wells in each plate, and then 4 ul/well substrate solution was added to initiate the reaction. The plate was protected from light and incubated at room temperature for 60 min. […] The plate was incubated for 1 h at room temperature, and HTRF (homogenous time resolved fluorescence) signal was measured on a PHERAstar FS plate reader (BMG labtech). Percentage of inhibition was calculated for each concentration and IC50 value was generated from curve fitting with GraphPad Prism software.

Tyro3, sequence (Q06418 41-890): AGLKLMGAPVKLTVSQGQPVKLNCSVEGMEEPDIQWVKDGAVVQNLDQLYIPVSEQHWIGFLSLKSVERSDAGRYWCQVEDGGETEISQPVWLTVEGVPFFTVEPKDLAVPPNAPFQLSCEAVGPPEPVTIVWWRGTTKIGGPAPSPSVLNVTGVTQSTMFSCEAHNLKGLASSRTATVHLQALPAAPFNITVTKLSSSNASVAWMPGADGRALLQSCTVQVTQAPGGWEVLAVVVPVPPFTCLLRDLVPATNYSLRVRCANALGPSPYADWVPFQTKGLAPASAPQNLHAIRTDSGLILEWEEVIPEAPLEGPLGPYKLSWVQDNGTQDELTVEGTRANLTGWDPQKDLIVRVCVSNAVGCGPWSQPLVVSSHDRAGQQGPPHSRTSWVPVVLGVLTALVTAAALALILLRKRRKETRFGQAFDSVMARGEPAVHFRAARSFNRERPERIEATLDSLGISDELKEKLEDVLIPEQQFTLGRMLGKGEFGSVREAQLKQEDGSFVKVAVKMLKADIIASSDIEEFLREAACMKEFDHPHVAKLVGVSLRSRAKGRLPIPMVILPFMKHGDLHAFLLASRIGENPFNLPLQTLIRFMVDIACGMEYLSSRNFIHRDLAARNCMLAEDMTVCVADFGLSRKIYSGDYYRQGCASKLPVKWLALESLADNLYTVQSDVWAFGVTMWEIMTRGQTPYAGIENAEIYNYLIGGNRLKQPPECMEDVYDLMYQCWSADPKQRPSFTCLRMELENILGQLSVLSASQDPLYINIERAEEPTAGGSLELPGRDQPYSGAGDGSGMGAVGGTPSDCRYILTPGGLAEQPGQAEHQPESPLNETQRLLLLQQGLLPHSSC

**Q.** Which IC50 does the source give for `Cc1cc(-n2c(=O)c(C(=O)Nc3ccc(-c4cc(C5CCN(C(=O)C(C)C)CC5)n5ncnc(N)c45)cc3)cn(C(C)C)c2=O)nn1C` [Example 148, N-(4-(4-Amino-7-(1-isobutyrylpiperidin-4-yl)pyrrolo[1,2-f][1,2,4]triazin-5-yl)phenyl)-3-(1,5-dimethyl-1H-pyrazol-3-yl)-1-isopropyl-2,4-dioxo-1,2,3,4-tetrahydropyrimidine-5-carboxamide] here?
**A.** Its IC50 is > 100 nM.

**Q.** `Cc1c(-c2cnn(C)c2)cc(C(=O)Nc2ccc(-c3cc(C4CCN(C(=O)C(C)C)CC4)n4ncnc(N)c34)cc2)c(=O)n1-c1ccccc1` [Example 107, N-{4-[4-Amino-7-(1-isobutyrylpiperidin-4-yl)pyrrolo[2,1-f][1,2,4]triazin-5-yl]phenyl}-6-methyl-5-(1-methyl-1H-pyrazol-4-yl)-2-oxo-1-phenyl-1,2-dihydropyridine-3-carboxamide] was tested. Which IC50 did it give?
**A.** The IC50 was > 100 nM.

**Q.** With `Cc1cc(-c2ccc(NC(=O)c3cccn(-c4ccccc4)c3=O)cc2F)c2c(N)ncnn12` [Example 10, N-[4-(4-Amino-7-methylpyrrolo[2,1-f][1,2,4]triazin-5-yl)-3-fluorophenyl]-2-oxo-1-phenyl-1,2-dihydropyridine-3-carboxamide] as the compound, how does the IC50 read?
**A.** The IC50 was > 100 nM.

**Q.** For `CN1CCC(c2cc(-c3ccc(NC(=O)c4cccn(-c5ccccc5)c4=O)cc3)c3c(N)ncnn23)CC1` [Example 20, N-{4-[4-Amino-7-(1-methylpiperidin-4-yl)pyrrolo[2,1-f][1,2,4]triazin-5-yl]phenyl}-2-oxo-1-phenyl-1,2-dihydropyridine-3-carboxamide], which IC50 is on record?
**A.** The IC50 was > 100 nM.

**Q.** Which IC50 does the source give for `Cc1nn(C)c(C)c1-c1cc(-c2ccc(NC(=O)c3cn(C(C)C)c(=O)n(-c4cccc(F)c4)c3=O)cc2)c2c(N)ncnn12` [Example 84, N-(4-(4-Amino-7-(1,3,5-trimethyl-1H-pyrazol-4-yl)pyrrolo[1,2-f][1,2,4]triazin-5-yl)phenyl)-3-(3-fluorophenyl)-1-isopropyl-2,4-dioxo-1,2,3,4-tetrahydropyrimidine-5-carboxamide] here?
**A.** Its IC50 is > 100 nM.

**Q.** For `Cc1cc(-c2ccc(NC(=O)c3cccn(-c4ccccc4)c3=O)cc2)c2c(N)ncnn12` [Example 8, N-[4-(4-Amino-7-methylpyrrolo[2,1-f][1,2,4]triazin-5-yl)phenyl]-2-oxo-1-phenyl-1,2-dihydropyridine-3-carboxamide], which IC50 is on record?
**A.** Its IC50 is > 100 nM.

**Q.** `COC(=O)N1CCC(c2cc(-c3ccc(NC(=O)c4cccn(-c5ccccc5)c4=O)cc3)c3c(N)ncnn23)CC1` [Example 36, Methyl 4-[4-amino-5-(4-{[(2-oxo-1-phenyl-1,2-dihydropyridin-3-yl)carbonyl]amino}phenyl)pyrrolo[2,1-f][1,2,4]triazin-7-yl]piperidine-1-carboxylate] was tested. Which IC50 did it give?
**A.** Its IC50 is > 100 nM.

**Q.** For `CC(C)n1cc(C(=O)Nc2ccc(-c3cc(C4CCN(C5CCN(C)C5=O)CC4)n4ncnc(N)c34)cc2)c(=O)n(-c2ccccc2)c1=O` (racemic) [Example 82, N-(4-(4-Amino-7-(1-(1-methyl-2-oxopyrrolidin-3-yl)piperidin-4-yl)pyrrolo[1,2-f][1,2,4]triazin-5-yl)phenyl)-1-isopropyl-2,4-dioxo-3-phenyl-1,2,3,4-tetrahydropyrimidine-5-carboxamide], which IC50 is on record?
**A.** Its IC50 is 10 to 100 nM.

**Q.** For `CCc1cc(-c2ccc(NC(=O)c3cccn([C@@H](CO)c4ccccc4)c3=O)cc2)c2c(N)ncnn12` [Example 2, N-[4-(4-Amino-7-ethylpyrrolo[2,1-f][1,2,4]triazin-5-yl)phenyl]-1-[(1R)-2-hydroxy-1-phenylethyl]-2-oxo-1,2-dihydropyridine-3-carboxamide], which IC50 is on record?
**A.** The IC50 was > 100 nM.

**Q.** For `Nc1ncnn2c(C3CCOCC3)cc(-c3ccc(NC(=O)c4cccn(-c5ccccc5)c4=O)cc3)c12` [Example 13, N-{4-[4-Amino-7-(tetrahydro-2H-pyran-4-yl)pyrrolo[2,1-f][1,2,4]triazin-5-yl]phenyl}-2-oxo-1-phenyl-1,2-dihydropyridine-3-carboxamide], which IC50 is on record?
**A.** The IC50 was > 100 nM.

**Q.** `CC(C)C(=O)N1CCC(c2cc(-c3ccc(NC(=O)c4cn(C(C)C)c(=O)n(C5CCCCC5)c4=O)cc3)c3c(N)ncnn23)CC1` [Example 90, N-(4-(4-Amino-7-(1-isobutyrylpiperidin-4-yl)pyrrolo[2,1-f][1,2,4]triazin-5-yl)phenyl)-3-cyclohexyl-1-isopropyl-2,4-dioxo-1,2,3,4-tetrahydropyrimidine-5-carboxamide] was tested. Which IC50 did it give?
**A.** Its IC50 is > 100 nM.

**Q.** How did the IC50 turn out when `CCN(C)C(=O)N1CCC(c2cc(-c3ccc(NC(=O)c4cccn(-c5ccc(F)cc5)c4=O)cc3)c3c(N)ncnn23)CC1` [Example 56, N-{4-[4-Amino-7-(1-{[ethyl(methyl)amino]carbonyl}piperidin-4-yl)pyrrolo[2,1-f][1,2,4]triazin-5-yl]phenyl}-1-(4-fluorophenyl)-2-oxo-1,2-dihydropyridine-3-carboxamide] was run?
**A.** Its IC50 is > 100 nM.

**Q.** For `COc1ccn(-c2ccccc2)c(=O)c1C(=O)Nc1ccc(-c2c(Br)c(C3CCN(C(=O)C(C)C)CC3)n3ncnc(N)c23)cc1` [Example 100, N-(4-(4-Amino-6-bromo-7-(1-isobutyrylpiperidin-4-yl)pyrrolo[1,2-f][1,2,4]triazin-5-yl)phenyl)-4-methoxy-2-oxo-1-phenyl-1,2-dihydropyridine-3-carboxamide], which IC50 is on record?
**A.** Its IC50 is > 100 nM.

**Q.** With `Cc1c(C(N)=O)cc(C(=O)Nc2ccc(-c3cc(C4CCN(C(=O)C(C)C)CC4)n4ncnc(N)c34)cc2)c(=O)n1-c1ccccc1` [Example 111a, N^3-(4-(4-Amino-7-(1-isobutyrylpiperidin-4-yl)pyrrolo[2,1-f][1,2,4]triazin-5-yl)phenyl)-6-methyl-2-oxo-1-phenyl-1,2-dihydropyridine-3,5-dicarboxamide] as the compound, how does the IC50 read?
**A.** Its IC50 is > 100 nM.

**Q.** `CC(C)n1cc(C(=O)Nc2ccc(-c3cc(C(=O)N(C)C)n4ncnc(N)c34)cc2)c(=O)n(-c2cccc(F)c2)c1=O` [Example 86, 4-Amino-5-(4-(3-(3-fluorophenyl)-1-isopropyl-2,4-dioxo-1,2,3,4-tetrahydropyrimidine-5-carboxamido)phenyl)-N,N-dimethylpyrrolo[2,1-f][1,2,4]triazine-7-carboxamide] was tested. Which IC50 did it give?
**A.** The IC50 was > 100 nM.

**Q.** For `Cc1cc(-c2ccc(NC(=O)c3cccn(-c4ccc(F)cc4)c3=O)cc2F)c2c(N)ncnn12` [Example 11, N-[4-(4-Amino-7-methylpyrrolo[2,1-f][1,2,4]triazin-5-yl)-3-fluorophenyl]-1-(4-fluorophenyl)-2-oxo-1,2-dihydropyridine-3-carboxamide], which IC50 is on record?
**A.** The IC50 was > 100 nM.

**Q.** Which IC50 does the source give for `CCc1cc(-c2ccc(NC(=O)c3cc4c(n(-c5ccc(F)cc5)c3=O)CCCC4=O)cc2)c2c(N)ncnn12` [Example 1, N-[4-(4-Amino-7-ethylpyrrolo[2,1-f][1,2,4]triazin-5-yl)phenyl]-1-(4-fluorophenyl)-2,5-dioxo-1,2,5,6,7,8-hexahydroquinoline-3-carboxamide] here?
**A.** The IC50 was > 100 nM.

**Q.** With `CS(=O)(=O)N1CCC(c2cc(-c3ccc(NC(=O)c4cccn(-c5ccccc5)c4=O)cc3)c3c(N)ncnn23)CC1` [Example 40, N-(4-{4-Amino-7-[1-(methylsulfonyl)piperidin-4-yl]pyrrolo[2,1-f][1,2,4]triazin-5-yl}phenyl)-2-oxo-1-phenyl-1,2-dihydropyridine-3-carboxamide] as the compound, how does the IC50 read?
**A.** Its IC50 is > 100 nM.

biological target: phosphor-Axl (Homo sapiens (Human), UniProt P30530); assay: TAM Enzymatic Assay (HTRF), Axl; assay type: biochemical; settings: recombinant autophosphorylated Axl, 60 min, room temperature
Description: Autophosphorylation of Axl was carried out by incubating the recombinant Axl protein (Life Technologies, PV4275) in buffer containing 50 mM Tris, pH7.5, 0.2 mg/ml Axl, 5 mM ATP, 20 mM MgCl2 and 2 mM DTT at room temperature for 1 hour.
as §1

phosphor-Axl, sequence (P30530 26-894): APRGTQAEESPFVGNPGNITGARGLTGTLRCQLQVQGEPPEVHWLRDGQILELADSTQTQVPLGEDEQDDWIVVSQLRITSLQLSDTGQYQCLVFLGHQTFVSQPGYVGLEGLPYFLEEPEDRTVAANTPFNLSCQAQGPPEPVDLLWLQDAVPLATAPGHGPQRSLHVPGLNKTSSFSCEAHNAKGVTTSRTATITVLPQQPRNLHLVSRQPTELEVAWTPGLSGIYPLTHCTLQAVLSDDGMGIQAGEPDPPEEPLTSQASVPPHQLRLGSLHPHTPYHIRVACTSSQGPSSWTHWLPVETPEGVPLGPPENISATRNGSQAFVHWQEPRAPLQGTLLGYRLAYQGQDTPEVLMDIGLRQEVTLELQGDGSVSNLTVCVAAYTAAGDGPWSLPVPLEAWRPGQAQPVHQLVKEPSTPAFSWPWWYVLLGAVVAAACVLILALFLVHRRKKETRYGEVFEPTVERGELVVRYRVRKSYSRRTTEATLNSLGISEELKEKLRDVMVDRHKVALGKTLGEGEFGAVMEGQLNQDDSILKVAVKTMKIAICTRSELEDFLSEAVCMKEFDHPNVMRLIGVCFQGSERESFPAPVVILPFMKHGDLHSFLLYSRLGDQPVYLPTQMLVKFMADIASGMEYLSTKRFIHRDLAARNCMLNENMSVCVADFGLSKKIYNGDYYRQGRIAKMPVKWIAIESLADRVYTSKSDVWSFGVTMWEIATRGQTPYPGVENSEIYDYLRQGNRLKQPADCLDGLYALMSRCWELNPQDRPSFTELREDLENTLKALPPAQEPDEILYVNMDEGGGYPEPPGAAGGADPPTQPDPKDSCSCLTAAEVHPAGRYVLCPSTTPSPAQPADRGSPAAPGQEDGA

**Q.** Which IC50 does the source give for `Cc1cc(-n2c(=O)c(C(=O)Nc3ccc(-c4cc(C5CCN(C(=O)C(C)C)CC5)n5ncnc(N)c45)cc3)cn(C(C)C)c2=O)nn1C` [Example 148, N-(4-(4-Amino-7-(1-isobutyrylpiperidin-4-yl)pyrrolo[1,2-f][1,2,4]triazin-5-yl)phenyl)-3-(1,5-dimethyl-1H-pyrazol-3-yl)-1-isopropyl-2,4-dioxo-1,2,3,4-tetrahydropyrimidine-5-carboxamide] here?
**A.** The IC50 was ≤ 5 nM.

**Q.** With `Cc1c(-c2cnn(C)c2)cc(C(=O)Nc2ccc(-c3cc(C4CCN(C(=O)C(C)C)CC4)n4ncnc(N)c34)cc2)c(=O)n1-c1ccccc1` [Example 107, N-{4-[4-Amino-7-(1-isobutyrylpiperidin-4-yl)pyrrolo[2,1-f][1,2,4]triazin-5-yl]phenyl}-6-methyl-5-(1-methyl-1H-pyrazol-4-yl)-2-oxo-1-phenyl-1,2-dihydropyridine-3-carboxamide] as the compound, how does the IC50 read?
**A.** Its IC50 is ≤ 5 nM.

**Q.** Which IC50 does the source give for `Cc1ccc(-c2ccc(C(=O)Nc3ccc(-c4cc(C5CCN(C(=O)C(C)C)CC5)n5ncnc(N)c45)cc3)c(=O)n2-c2ccccc2)cn1` [Example 105, N-(4-(4-Amino-7-(1-isobutyrylpiperidin-4-yl)pyrrolo[2,1-f][1,2,4]triazin-5-yl)phenyl)-6′-methyl-6-oxo-1-phenyl-1,6-dihydro-[2,3′-bipyridine]-5-carboxamide] here?
**A.** The IC50 was ≤ 5 nM.

**Q.** `CCN(C)C(=O)N1CCC(c2cc(-c3ccc(NC(=O)c4cn(C(C)C)c(=O)n(-c5ccc(F)cc5)c4=O)cc3)c3c(N)ncnn23)CC1` [Example 66, N-(4-(4-Amino-7-(1-(ethyl(methyl)carbamoyl)piperidin-4-yl)pyrrolo[1,2-f][1,2,4]triazin-5-yl)phenyl)-3-(4-fluorophenyl)-1-isopropyl-2,4-dioxo-1,2,3,4-tetrahydropyrimidine-5-carboxamide] was tested. Which IC50 did it give?
**A.** Its IC50 is ≤ 5 nM.

**Q.** How did the IC50 turn out when `Cc1c(-c2ccnn2C)c(=O)c(C(=O)Nc2ccc(-c3cc(C4CCN(C(=O)C(C)C)CC4)n4ncnc(N)c34)cc2)cn1C(C)C` [Example 97, N-(4-(4-Amino-7-(1-isobutyrylpiperidin-4-yl)pyrrolo[2,1-f][1,2,4]triazin-5-yl)phenyl)-1-isopropyl-6-methyl-5-(1-methyl-1H-pyrazol-5-yl)-4-oxo-1,4-dihydropyridine-3-carboxamide] was run?
**A.** Its IC50 is ≤ 5 nM.

**Q.** `CC(C)C(=O)N1CCC(c2cc(-c3ccc(NC(=O)c4cn(C(C)C)c(=O)n(-c5cccc(F)c5)c4=O)cc3)c3c(N)ncnn23)CC1` [Example 71, N-(4-(4-Amino-7-(1-isobutyrylpiperidin-4-yl)pyrrolo[1,2-f][1,2,4]triazin-5-yl)phenyl)-3-(3-fluorophenyl)-1-isopropyl-2,4-dioxo-1,2,3,4-tetrahydropyrimidine-5-carboxamide] was tested. Which IC50 did it give?
**A.** The IC50 was ≤ 5 nM.

**Q.** Which IC50 does the source give for `Nc1ncnn2c(C3CCN(CCO)CC3)cc(-c3ccc(NC(=O)c4cc5c(n(-c6ccc(F)cc6)c4=O)CCCC5=O)cc3F)c12` [Example 60, N-(4-{4-Amino-7-[1-(2-hydroxyethyl)piperidin-4-yl]pyrrolo[2,1-f][1,2,4]triazin-5-yl}-3-fluorophenyl)-1-(4-fluorophenyl)-2,5-dioxo-1,2,5,6,7,8-hexahydroquinoline-3-carboxamide] here?
**A.** The IC50 was ≤ 5 nM.
